Legend:
[1] = system: collagen matrix metalloproteinase-1 (MMP-1); test: Collagen matrix metalloproteinase-1 (MMP-1) activity inhibition, collagenase type-1 on bovine tendon collagen, ninhydrin absorbance 600 nm; type: biochemical; settings: method of Example 3
Protocol: As part of measuring a wrinkle alleviation effect of the white rose petal extract, effects of inhibiting activity of collagen matrix metalloproteinase-1 (MMP-1) of the extracts were measured with reference to the guideline of “beauty-related functional tests (pp. 821-858)” of Korea health official compendium research society foundation.
When simply describing the effect, 25 mg of bovine tendon collagen was dissolved in a 0.05 M tris(hydroxymethyl)-methyl-2-aminoethane sulfonate (TES) buffer and then left for 15 minutes at 37° C. Next, a test material for each concentration was added and then additionally reacted with collagenase type-1 for 5 hours at 37° C. 0.2 mL of a reaction solution was taken and added to 1 mL of a buffer [4% ninhydrin in methyl cellosolve (2-methoxyethanol)+0.2 M sodium citrate with 0.71 mM stannous chloride]. The reaction solution was boiled for 20 minutes, added with n-propanol, and then left for 15 minutes and then absorbance was measured at 600 nm. On the basis of a change in absorbance when only the buffer without the white rose fractions was added as a reference (100%), reduction of the absorbance caused by the white rose fractions for each concentration was represented by an inhibition rate.

[2] = system: mushroom tyrosinase; test: Melanin synthase (tyrosinase) inhibition with L-DOPA, absorbance 475 nm; type: biochemical; settings: method of Example 4
Protocol: Meanwhile, in order to measure a skin whitening effect of the white rose petal extract, an effect of inhibiting activity of tyrosinase as melanin synthase was measured with reference to the guideline of “beauty-related functional tests (pp. 821-858)” of Korea health official compendium research society foundation. […] In this case, on the basis of a change in absorbance when only the buffer without the white rose fractions was added as a reference (100%), reduction of the absorbance caused by the white rose fractions for each concentration was represented by an inhibition rate.

[3] = system: B16 mouse melanoma cells; test: Melanin synthesis inhibition in α-MSH-treated cells; type: cell-based; settings: method of Example 5
Protocol: In order to more definitize a skin whitening effect of the white rose petal extract, the inventors measured a melanin synthesis inhibitory effect of the white rose petal extract at a cell level with reference to the guideline of “beauty-related functional tests (pp. 821-858)” of Korea health official compendium research society foundation (2004).
When simply describing this, B16 mouse melanoma cells were dispensed to 1×10^4 cells/well (0.5 mL) in a […] plate and cultured for 24 hours. The B16 mouse melanoma cells was treated with the white rose fraction for each concentration and a α-melanocyte stimulating hormone (MSH) and additionally cultured for 3 days at 37° C. The cells were lysed by adding 0.15 mL of 1 M NaOH to a culture medium and boiled for 5 minutes to elute the melanin. 0.1 mL of the eluate was taken and absorbance at 490 nm was measured. A standard calibration curve was created by synthetic melanin and the concentration was quantified and an inhibition rate for each concentration of the white rose fraction was proposed based on a melanin production amount when the sample was not treated as a reference (100%).

Which “inhibition effect of MMP-1 (in words)” value [1] does the source give for `COc1c(CC=C(C)C)c(O)c2c(=O)c3c(O)ccc(OC)c3oc2c1CC=C(C)C` [3,5-di-o-methyl-gartanin] here?
Its value is “particularly excellent inhibition effect of MMP-1”.

And the “tyrosinase inhibition activity (in words)” value [2]?
The value was “excellent tyrosinase inhibition activity”.

And the “melanin synthesis inhibitory effect (in words)” value [3]?
The value was “efficiently inhibited”.
